According to ChEMBL document CHEMBL1201862, “PubChem BioAssay data set” (2004):
One block for each molecule: values may come before it. Active and inactive are the calls of the source.

Tests used:
Beta-galactosidase = Beta-galactosidase (Escherichia coli, UniProt Q8VNN2); test: Dose response counterscreen for EBI2 assay utilizing the enzyme, b-galactosidase.; format: functional
Caspase-6 = target: T1, Caspase-6 (Homo sapiens, UniProt P55212); test: inhibition of CASP6 peptide cleavage – biochemical, VEID-R110 fluorescence, cherry-pick, dose response (AID 720632)
T1 sequence (P55212 whole entry): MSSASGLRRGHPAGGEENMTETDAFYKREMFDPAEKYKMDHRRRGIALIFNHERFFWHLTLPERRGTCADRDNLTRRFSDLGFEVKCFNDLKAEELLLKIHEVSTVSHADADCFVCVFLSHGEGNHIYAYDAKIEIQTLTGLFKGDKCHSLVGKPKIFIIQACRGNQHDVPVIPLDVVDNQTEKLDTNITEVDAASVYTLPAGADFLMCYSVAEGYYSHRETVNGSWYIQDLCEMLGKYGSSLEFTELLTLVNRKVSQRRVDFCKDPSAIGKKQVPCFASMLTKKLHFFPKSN

Large T antigen = Large T antigen (Simian virus 40, UniProt P03070); format: functional, Betapolyomavirus macacae;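 also: Confirmatory-stage PubChem screen for compounds that inhibit SV40 T antigen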
Vero = test: viability of Vero cells under compound – cytotoxicity control for flavivirus capping enzyme inhibitors (AID 588742); format: functional; conditions: Chlorocebus sabaeus
[1] = target: Intestinal-type alkaline phosphatase (Mus musculus, UniProt P24822); test: PubChem AID 488785; format: functional
[2] = non-specific 3'UTR reporter inhibition in Clone20-Shn3RL – cell-based, Renilla luciferase, cherry-picked, counter-screen for Shn3 inhibitor project, dose response (AID 624133); format: functional
[3] = reduction of Shn3 3'UTR-driven luciferase in osteoblasts – cell-based, Clone20 osteoblasts, firefly luciferase, cherry-picked, dose response (AID 624132); format: functional;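 also: firefly luciferase luminescence from reporter carrying the Shn3 3'UTR in osteoblasts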
[4] = target: Histone-lysine N-methyltransferase NSD2 (Homo sapiens, UniProt O96028); format: biochemical
Genome polyprotein = Genome polyprotein (dengue virus type 2, UniProt P29990); test: flavivirus cap methylation enzyme inhibition – biochemical, confirmation dose response, primary screen (AID 588689); format: functional
[5] = target: T2, Alkaline phosphatase, tissue-nonspecific isozyme (Homo sapiens, UniProt P05186); test: TNAP enzyme inhibition by screening hits, dose response, selectivity assay for mouse IAP inhibitor project, biochemical, human TNAP, uHTS hits (AID 488906); format: functional
T2 sequence (P05186 whole entry): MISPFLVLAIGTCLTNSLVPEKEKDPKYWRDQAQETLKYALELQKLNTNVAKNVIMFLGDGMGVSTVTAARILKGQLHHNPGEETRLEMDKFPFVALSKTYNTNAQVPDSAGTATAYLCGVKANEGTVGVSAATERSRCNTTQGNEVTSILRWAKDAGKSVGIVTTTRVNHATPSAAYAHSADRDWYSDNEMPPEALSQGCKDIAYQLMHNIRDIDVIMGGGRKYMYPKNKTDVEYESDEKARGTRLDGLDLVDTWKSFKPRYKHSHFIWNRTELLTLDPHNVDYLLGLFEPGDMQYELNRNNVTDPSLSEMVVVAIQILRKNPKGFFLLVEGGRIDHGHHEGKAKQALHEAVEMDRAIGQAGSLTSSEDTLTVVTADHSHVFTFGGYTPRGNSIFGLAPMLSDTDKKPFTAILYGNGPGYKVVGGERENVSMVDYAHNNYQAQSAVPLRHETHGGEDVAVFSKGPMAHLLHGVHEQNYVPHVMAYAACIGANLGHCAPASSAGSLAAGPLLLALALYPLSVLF

[6] = target: Intestinal-type alkaline phosphatase (Homo sapiens, UniProt P09923); test: inhibition of human intestinal alkaline phosphatase – biochemical, dose response (AID 488876); format: functional
BJ [7] = test: cells; format: functional, cell-based; conditions: Homo sapiens
[8] = DRD fibroblast viability loss – cell-based, non-viral oncogenic, luminescence, dose response (AID 1934); format: functional; conditions: Homo sapiens
[9] = target: T3, Sentrin-specific protease 8 (Homo sapiens, UniProt Q96LD8); format: functional
T3 sequence (Q96LD8 whole entry): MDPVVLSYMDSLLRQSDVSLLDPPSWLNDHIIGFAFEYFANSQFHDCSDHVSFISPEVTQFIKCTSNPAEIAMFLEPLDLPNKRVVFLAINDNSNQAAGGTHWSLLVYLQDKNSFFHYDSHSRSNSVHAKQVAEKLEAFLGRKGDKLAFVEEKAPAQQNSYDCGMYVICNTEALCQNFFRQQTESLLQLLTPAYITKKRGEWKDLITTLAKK

[10] = target: T3, Sentrin-specific protease 8; format: functional; remark: listed apart in the source
BJ [11] = test: BJ-TERT fibroblast viability loss – cell-based, RAS-independent, luminescence, dose response (AID 1933); format: functional; conditions: Homo sapiens
BJ [12] = test: BJ-TERT-LT-ST fibroblast viability loss – cell-based, RAS-independent, luminescence, dose response (AID 1935); format: functional; conditions: Homo sapiens;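 also: BJ fibroblasts immortalized with TERT plus LT and ST oncogenes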
[13] = Luminescence Cell-Based Dose Confirmation HTS to Identify Inhibitors of Platelet Dense Granule Release. [Related pubchem assays: 1663 (Primary HTS), 1678 (Summary of Project)]; format: functional
[14] = target: Luciferin 4-monooxygenase (Photinus pyralis, UniProt P08659); test: inhibition of purified Photinus pyralis luciferase – biochemical, luminescence, dose response (AID 1891)
[15] = target: Glucose-6-phosphate 1-dehydrogenase (Homo sapiens, UniProt P11413); test: inhibition of Homo sapiens G6PD, dose series – biochemical, fluorescence, selectivity assay for P. falciparum G6PD inhibitor project, dose response (AID 504792); format: functional
[16] = target: Heat shock protein HSP 90-alpha (Homo sapiens, UniProt P07900); format: functional, organism-based

Chain of Genome polyprotein (P29990 2492-3391 limits assumed): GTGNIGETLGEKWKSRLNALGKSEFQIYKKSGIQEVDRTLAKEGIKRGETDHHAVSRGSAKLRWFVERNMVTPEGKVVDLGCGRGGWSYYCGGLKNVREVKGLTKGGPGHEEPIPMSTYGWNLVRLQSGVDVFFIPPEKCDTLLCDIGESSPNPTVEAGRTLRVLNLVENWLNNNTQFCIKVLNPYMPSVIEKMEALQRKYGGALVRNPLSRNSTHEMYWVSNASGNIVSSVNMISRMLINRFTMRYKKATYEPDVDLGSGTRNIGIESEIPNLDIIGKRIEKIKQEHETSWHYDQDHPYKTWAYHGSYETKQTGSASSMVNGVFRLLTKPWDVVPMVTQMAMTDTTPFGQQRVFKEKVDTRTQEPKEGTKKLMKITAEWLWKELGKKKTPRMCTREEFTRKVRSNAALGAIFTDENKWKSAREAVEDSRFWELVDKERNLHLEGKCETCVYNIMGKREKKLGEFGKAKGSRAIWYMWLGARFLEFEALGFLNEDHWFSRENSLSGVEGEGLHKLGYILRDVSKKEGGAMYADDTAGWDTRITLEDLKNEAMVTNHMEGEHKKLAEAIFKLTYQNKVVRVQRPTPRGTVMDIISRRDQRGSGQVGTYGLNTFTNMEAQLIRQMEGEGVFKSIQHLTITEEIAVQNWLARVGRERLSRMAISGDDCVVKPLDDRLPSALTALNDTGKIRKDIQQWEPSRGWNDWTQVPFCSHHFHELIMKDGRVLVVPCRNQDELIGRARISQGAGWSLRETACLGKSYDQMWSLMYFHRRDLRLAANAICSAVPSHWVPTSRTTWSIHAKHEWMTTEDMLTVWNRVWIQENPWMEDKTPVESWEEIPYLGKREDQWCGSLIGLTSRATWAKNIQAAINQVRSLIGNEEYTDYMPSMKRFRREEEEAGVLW
Chain of Beta-galactosidase (Q8VNN2 whole entry): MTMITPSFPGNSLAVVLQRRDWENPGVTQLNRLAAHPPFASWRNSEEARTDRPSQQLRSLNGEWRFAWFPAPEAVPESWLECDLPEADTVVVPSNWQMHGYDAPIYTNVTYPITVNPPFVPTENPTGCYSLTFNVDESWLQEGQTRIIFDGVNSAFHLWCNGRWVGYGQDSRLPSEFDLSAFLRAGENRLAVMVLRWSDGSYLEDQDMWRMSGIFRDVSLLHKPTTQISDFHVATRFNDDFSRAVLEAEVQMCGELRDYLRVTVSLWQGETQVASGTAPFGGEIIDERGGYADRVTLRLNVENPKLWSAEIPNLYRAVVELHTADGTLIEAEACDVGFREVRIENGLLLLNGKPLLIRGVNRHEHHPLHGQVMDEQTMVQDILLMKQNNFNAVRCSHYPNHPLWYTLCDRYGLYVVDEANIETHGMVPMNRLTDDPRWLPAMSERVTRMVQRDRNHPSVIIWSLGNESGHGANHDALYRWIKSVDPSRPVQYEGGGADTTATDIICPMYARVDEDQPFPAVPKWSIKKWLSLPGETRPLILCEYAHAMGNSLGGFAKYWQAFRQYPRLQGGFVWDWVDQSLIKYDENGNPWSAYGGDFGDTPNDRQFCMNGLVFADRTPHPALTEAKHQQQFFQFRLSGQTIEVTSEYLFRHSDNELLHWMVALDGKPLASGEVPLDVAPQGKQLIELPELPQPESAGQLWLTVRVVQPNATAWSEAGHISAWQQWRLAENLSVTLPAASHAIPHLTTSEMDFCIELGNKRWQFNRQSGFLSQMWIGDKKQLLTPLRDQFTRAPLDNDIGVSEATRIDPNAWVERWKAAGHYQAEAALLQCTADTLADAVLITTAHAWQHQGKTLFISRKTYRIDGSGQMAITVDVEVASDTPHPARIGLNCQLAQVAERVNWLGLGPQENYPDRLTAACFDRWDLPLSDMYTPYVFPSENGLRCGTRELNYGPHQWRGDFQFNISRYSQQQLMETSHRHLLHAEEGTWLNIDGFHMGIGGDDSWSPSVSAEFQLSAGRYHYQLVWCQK
Chain of Intestinal-type alkaline phosphatase (Mus musculus, UniProt P24822) (P24822 whole entry): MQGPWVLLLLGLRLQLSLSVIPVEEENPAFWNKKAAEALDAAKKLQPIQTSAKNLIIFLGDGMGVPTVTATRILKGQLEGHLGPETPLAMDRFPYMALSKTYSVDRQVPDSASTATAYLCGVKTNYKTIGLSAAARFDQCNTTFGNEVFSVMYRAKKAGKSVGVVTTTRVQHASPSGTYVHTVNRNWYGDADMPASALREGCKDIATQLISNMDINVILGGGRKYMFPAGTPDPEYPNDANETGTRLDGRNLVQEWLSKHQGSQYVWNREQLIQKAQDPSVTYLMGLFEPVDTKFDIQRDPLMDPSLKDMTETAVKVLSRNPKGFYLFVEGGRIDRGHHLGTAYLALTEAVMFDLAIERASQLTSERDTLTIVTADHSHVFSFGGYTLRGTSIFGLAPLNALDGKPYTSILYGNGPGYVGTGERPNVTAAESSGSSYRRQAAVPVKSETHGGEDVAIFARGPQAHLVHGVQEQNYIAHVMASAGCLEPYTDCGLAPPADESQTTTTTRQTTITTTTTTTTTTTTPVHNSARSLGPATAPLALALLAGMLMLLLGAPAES
Chain of Intestinal-type alkaline phosphatase (Homo sapiens, UniProt P09923) (P09923 whole entry): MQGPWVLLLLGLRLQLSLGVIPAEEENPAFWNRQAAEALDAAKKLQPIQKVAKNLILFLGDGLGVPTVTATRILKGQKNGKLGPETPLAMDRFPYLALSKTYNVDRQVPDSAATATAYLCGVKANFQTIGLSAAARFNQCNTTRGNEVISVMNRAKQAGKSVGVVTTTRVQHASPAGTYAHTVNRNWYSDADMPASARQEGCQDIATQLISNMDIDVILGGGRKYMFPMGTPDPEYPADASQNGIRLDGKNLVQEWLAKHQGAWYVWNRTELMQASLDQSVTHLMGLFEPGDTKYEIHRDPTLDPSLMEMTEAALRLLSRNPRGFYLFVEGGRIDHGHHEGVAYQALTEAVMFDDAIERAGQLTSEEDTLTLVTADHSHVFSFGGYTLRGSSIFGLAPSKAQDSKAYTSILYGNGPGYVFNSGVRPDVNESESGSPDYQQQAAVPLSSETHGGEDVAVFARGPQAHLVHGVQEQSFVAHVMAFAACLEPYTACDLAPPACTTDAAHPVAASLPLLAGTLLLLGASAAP
Chain of Large T antigen (P03070 whole entry): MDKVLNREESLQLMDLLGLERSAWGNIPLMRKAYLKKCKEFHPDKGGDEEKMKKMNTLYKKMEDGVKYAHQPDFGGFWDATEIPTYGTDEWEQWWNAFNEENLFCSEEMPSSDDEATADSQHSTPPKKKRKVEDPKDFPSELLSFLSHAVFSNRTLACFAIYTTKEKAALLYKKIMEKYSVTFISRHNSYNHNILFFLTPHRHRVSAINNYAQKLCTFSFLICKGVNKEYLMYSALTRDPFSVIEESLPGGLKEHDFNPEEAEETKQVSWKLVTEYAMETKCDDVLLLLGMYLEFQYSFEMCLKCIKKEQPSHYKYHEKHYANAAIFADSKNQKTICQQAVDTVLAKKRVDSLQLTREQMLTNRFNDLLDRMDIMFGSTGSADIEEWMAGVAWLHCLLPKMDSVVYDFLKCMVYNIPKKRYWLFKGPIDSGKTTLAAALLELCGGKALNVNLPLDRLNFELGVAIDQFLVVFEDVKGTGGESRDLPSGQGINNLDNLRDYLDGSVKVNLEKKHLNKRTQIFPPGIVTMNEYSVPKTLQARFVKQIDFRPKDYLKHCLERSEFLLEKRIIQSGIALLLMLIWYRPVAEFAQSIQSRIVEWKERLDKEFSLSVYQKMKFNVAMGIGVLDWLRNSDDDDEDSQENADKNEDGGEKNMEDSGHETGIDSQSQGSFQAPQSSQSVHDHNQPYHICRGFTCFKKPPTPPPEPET
Chain of Luciferin 4-monooxygenase (P08659 whole entry): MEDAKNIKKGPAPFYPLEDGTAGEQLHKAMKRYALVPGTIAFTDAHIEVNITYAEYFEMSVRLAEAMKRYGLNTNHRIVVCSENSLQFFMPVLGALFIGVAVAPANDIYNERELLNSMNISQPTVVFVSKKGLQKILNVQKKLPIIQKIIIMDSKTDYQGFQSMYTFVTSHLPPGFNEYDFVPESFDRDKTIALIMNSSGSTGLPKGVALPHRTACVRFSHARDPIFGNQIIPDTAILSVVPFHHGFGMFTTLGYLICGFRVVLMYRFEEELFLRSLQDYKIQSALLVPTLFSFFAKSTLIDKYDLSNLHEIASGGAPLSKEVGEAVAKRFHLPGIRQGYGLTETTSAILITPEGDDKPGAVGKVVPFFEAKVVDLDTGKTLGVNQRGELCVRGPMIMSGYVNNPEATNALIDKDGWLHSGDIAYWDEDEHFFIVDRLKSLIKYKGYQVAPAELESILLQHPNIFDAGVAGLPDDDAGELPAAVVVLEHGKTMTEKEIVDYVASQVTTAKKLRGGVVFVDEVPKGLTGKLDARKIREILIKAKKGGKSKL
Chain of Glucose-6-phosphate 1-dehydrogenase (P11413 whole entry): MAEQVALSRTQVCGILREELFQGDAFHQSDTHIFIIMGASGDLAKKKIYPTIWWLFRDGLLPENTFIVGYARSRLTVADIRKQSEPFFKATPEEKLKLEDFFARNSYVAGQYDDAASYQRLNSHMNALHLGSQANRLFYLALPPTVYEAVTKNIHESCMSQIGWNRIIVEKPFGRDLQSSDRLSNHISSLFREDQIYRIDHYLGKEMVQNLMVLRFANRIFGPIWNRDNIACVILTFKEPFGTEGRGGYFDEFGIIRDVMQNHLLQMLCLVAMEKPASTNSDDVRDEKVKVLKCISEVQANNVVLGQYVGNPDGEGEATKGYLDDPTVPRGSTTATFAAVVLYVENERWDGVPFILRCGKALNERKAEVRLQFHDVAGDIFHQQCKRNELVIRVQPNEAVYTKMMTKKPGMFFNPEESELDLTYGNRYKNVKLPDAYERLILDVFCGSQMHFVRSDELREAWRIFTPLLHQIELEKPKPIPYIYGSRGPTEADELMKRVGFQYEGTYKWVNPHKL

- IC50 (Beta-galactosidase): > 80 µM (inactive)
Compound: COc1ccc(OCC(=O)N2CCN(c3nnc(-c4ccc(C)cc4)c4ccccc34)CC2)cc1

Compound: Oc1ccc(-c2csc(Nc3cccc4ccccc34)n2)cc1O
- AC50 (Caspase-6): 14.1 µM (active)
- IC50 (Large T antigen): 66.2 µM (active)
- CC50 (Vero): > 40 µM (active)
- IC50 [1]: 1.63 µM (active)
- AC50 [2]: 7.93 µM (active)
- AC50 [3]: 1.58 µM (active)
- AC50 [4]: 10.5 µM (active)
- IC50 (Genome polyprotein): > 100 µM (active)
- IC50 [5]: 78 µM (active)
- IC50 [6]: 3.36 µM (active)

Compound: COc1cccc2nc3cc(C)c(C)cc3nc12
- CC50 (Vero): 11.7 µM (active)
- EC50 (BJ [7]): 3.05 µM (active)
- EC50 [8]: 3.01 µM (active)
- IC50 [9]: 8.2 µM (active)
- IC50 [10]: 8.48 µM (active)
- EC50 (BJ [11]): 3.31 µM (active)
- IC50 (Genome polyprotein): 62.2 µM (active)
- EC50 (BJ [12]): 12.2 µM (inconclusive)
- EC50 [13]: 7.02 µM (active)
- EC50 [14]: 923 nM (active)
- IC50 [15]: 37.1 µM (inactive)

- AC50 [16]: 7.83 µM (active)
Compound: CCOc1ccc(Br)cc1C1=NN(C(C)=O)C(c2ccc([N+](=O)[O-])s2)O1 (stereo not given)
- IC50 [9]: 9.04 µM (active)
- IC50 [10]: 11 µM (active)
